Where a name gives a salt, the structure may show the parent alone. Read-outs that look alike come from different tables or passages of the source.
Biological target: hNav1.7 (Homo sapiens (Human), UniProt Q15858)
Test: Tritiated sulfonamide competitive binding to membranes from cells expressing hNav1.7 and the β1 subunit;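 note: Filter-bound radioactivity counted by liquid scintillation, nonspecific binding defined with excess unlabelled ligand, IC50 fitted to percent inhibition of specific binding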
[1] = read-out: Ligand Binding Assay, 100 pM [3H]compound, membranes with hNav1.7 and β1 subunit, 18 h, room temperature

Sequence of hNav1.7 (Q15858 other isoform, or with tags, fused parts or gaps): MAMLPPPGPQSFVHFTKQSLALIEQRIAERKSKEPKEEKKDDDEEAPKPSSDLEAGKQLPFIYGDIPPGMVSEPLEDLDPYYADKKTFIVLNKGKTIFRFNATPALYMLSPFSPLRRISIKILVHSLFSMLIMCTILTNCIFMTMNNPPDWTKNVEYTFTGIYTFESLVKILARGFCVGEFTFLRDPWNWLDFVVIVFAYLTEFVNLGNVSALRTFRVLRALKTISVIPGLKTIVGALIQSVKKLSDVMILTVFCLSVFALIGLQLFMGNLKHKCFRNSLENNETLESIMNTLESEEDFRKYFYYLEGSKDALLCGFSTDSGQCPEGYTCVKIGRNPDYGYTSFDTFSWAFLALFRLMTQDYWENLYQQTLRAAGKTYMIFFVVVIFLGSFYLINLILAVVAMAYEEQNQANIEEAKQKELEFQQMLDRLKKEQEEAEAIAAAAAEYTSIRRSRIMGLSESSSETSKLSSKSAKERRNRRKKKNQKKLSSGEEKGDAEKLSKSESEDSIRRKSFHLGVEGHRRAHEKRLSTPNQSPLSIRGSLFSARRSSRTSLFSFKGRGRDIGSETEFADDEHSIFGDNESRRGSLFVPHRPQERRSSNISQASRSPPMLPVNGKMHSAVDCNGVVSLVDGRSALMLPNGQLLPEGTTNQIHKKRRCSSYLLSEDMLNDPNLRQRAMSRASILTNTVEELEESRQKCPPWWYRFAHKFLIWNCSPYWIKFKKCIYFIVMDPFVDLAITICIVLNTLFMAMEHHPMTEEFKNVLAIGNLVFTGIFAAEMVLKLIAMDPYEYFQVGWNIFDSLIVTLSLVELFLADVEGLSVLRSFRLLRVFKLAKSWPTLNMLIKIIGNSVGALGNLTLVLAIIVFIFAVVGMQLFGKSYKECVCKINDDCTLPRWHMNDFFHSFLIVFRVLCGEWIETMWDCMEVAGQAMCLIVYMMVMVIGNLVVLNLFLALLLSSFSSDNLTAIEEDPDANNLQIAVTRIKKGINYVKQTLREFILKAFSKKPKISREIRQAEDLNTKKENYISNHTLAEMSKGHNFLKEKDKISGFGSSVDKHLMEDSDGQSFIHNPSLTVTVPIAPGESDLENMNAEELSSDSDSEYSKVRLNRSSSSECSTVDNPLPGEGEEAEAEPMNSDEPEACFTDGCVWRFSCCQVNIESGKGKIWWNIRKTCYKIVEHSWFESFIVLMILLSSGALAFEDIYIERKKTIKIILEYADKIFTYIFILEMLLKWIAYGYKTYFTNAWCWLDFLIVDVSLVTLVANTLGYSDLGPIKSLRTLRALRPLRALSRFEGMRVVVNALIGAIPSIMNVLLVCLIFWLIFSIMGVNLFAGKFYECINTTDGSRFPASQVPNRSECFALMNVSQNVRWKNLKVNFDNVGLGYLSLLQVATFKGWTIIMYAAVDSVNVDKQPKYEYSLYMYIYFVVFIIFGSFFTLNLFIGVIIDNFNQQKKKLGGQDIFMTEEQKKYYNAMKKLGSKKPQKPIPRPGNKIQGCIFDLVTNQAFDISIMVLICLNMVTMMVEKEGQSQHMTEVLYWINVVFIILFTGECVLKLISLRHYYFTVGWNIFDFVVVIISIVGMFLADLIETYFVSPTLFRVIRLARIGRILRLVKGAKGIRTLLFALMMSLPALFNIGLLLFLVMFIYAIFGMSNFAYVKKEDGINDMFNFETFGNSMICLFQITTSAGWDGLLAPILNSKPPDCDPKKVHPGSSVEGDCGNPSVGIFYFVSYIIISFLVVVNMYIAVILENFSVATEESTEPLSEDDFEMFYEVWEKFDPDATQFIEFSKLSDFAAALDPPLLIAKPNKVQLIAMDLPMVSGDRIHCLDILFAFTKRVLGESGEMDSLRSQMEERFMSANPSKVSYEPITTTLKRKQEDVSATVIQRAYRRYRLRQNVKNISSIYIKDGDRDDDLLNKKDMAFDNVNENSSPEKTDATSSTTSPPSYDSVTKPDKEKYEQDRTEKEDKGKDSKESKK
Sequence of hNav1.7 (Q07699 19-218 partner): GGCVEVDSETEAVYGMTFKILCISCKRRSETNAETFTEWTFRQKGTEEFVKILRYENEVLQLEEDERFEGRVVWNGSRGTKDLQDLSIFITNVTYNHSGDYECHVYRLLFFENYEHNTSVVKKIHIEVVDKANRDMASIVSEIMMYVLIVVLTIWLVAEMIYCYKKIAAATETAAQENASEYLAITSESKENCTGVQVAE

| SMILES | IC50 [1] | IC50 |
| --- | --- | --- |
| Cc1ccc(CN2CCC[C@@H](Oc3cc(F)c(C(=O)NS(=O)(=O)C4CC4)cc3C3CC3)C2)cc1 [Example 32, (R)-5-cyclopropyl-N-(cyclopropylsulfonyl)-2-fluoro-4-((1-(4-methylbenzyl)piperidin-3-yl)oxy)benzamide] | – | 5.4 nM |
| O=C(NS(=O)(=O)N1CCC1)c1cc(C2CC2)c(O[C@@H]2CCCN(c3ccc(F)cc3)C2)cc1F [Example 37, (R)—N-(azetidin-1-ylsulfonyl)-5-cyclopropyl-2-fluoro-4-((1-(4-fluorophenyl)piperidin-3-yl)oxy)benzamide, trifluoroacetic acid salt] | – | 15.1 nM |
| Cc1ccc(CN2CCC(COc3cc(F)c(C(=O)NS(C)(=O)=O)cc3C3CC3)CC2)cc1 [Example 93, 5-Cyclopropyl-2-fluoro-4-((1-(4-methylbenzyl)piperidin-4-yl)methoxy)-N-(methylsulfonyl)benzamide] | 173 nM | – |
| O=C(NS(=O)(=O)N1CCC1)c1cc(C2CC2)c(O[C@@H]2CCCN(Cc3ccc(F)cc3)C2)cc1F [Example 22] | – | 18.2 nM |
| C[C@@H]1CC[C@@H](COc2cc(F)c(C(=O)NS(C)(=O)=O)cc2C2CC2)CN1[C@H](C)c1cc(Cl)cc(Cl)c1 [Example 343, 5-cyclopropyl-4-(((3R,6R)-1-((R)-1-(3,5-dichlorophenyl)ethyl)-6-methylpiperidin-3-yl)methoxy)-2-fluoro-N-(methylsulfonyl)benzamide, trifluoroacetic acid salt] | 8.4 nM | – |
| C[C@H](c1ccc(Cl)c(Cl)c1)N1CCC(COc2cc(F)c(C(=O)NS(C)(=O)=O)cc2C2CC2)CC1 (single isomer, unassigned) [Example 214] | 3.1 nM | – |
| C[C@H](c1ccc(Cl)cc1Cl)N1CCC(C)(COc2cc(F)c(C(=O)NS(C)(=O)=O)cc2C2CC2)CC1 [Example 281, (R)-5-cyclopropyl-4-((1-(1-(2,4-dichlorophenyl)ethyl)-4-methylpiperidin-4-yl)methoxy)-2-fluoro-N-(methylsulfonyl)benzamide] | 4.7 nM | – |
| CC[C@H](c1cc(Cl)cc(Cl)c1)N1CCC(COc2cc(F)c(C(=O)NS(C)(=O)=O)cc2C2CC2)CC1 [Example 240, (R)-5-cyclopropyl-4-((1-(1-(3,5-dichlorophenyl)propyl)piperidin-4-yl)methoxy)-2-fluoro-N-(methylsulfonyl)benzamide] | 2.4 nM | – |
| CC1(COc2cc(F)c(C(=O)NS(=O)(=O)N3CCC3)cc2C2CC2)CN(C(c2ccccc2)c2ccccc2)C1 [Example 71, N-(azetidin-1-ylsulfonyl)-4-((1-benzhydryl-3-methylazetidin-3-yl)methoxy)-5-cyclopropyl-2-fluorobenzamide] | 3.1 nM | – |
| O=C(NS(=O)(=O)C1CC1)c1cc(C2CC2)c(OCC2CCN(Cc3ccc(C4CC4)cc3Cl)CC2)cc1F [Example 416, 4-((1-(2-chloro-4-cyclopropylbenzyl)piperidin-4-yl)methoxy)-5-cyclopropyl-N-(cyclopropylsulfonyl)-2-fluorobenzamide, trifluoroacetic acid salt] | 5.3 nM | – |
| O=C(NS(=O)(=O)C1CC1)c1cc(C2CC2)c(OC[C@H]2CCCN(Cc3ccc(F)cc3Cl)C2)cc1F [Example 340, (S)-4-((1-(2-chloro-4-fluorobenzyl)piperidin-3-yl)methoxy)-5-cyclopropyl-N-(cyclopropylsulfonyl)-2-fluorobenzamide, trifluoroacetic acid salt] | 4.7 nM | – |
| CC1(COc2cc(F)c(C(=O)NS(C)(=O)=O)cc2C2CC2)CCN(C(=O)c2cc(Cl)c(Cl)cc2F)CC1 [Example 577, 5-cyclopropyl-4-((1-(4,5-dichloro-2-fluorobenzoyl)-4-methylpiperidin-4-yl)methoxy)-2-fluoro-N-(methylsulfonyl)benzamide] | 40 nM | – |
| CC(C)N(C(=O)CN1CCC[C@@H](Oc2cc(F)c(C(=O)NS(C)(=O)=O)cc2C2CC2)C1)C(C)C [Example 179] | 1800 nM | – |
| O=C(NS(=O)(=O)C1CC1)c1cc(C2CC2)c(CN2CCC(Oc3ccc(Cl)cc3Cl)CC2)cc1F [Example 547, 5-cyclopropyl-N-(cyclopropylsulfonyl)-4-((4-(2,4-dichlorophenoxy)piperidin-1-yl)methyl)-2-fluorobenzamide, trifluoroacetic acid salt] | – | 8.2 nM |
| CS(=O)(=O)NC(=O)c1cc(C2CC2)c(OCC2CCN(c3ccccc3Cl)CC2)cc1F [Example 293, 4-((1-(2-Chlorophenyl)piperidin-4-yl)methoxy)-5-cyclopropyl-2-fluoro-N-(methylsulfonyl)benzamide] | 5.2 nM | – |
| Cc1cc(C(=O)NS(=O)(=O)C2CC2)c(F)cc1OCC1CCN([C@@H](C)c2cc(Cl)cc(Cl)c2)CC1 [Example 359, (S)—N-(cyclopropylsulfonyl)-4-((1-(1-(3,5-dichlorophenyl)ethyl)piperidin-4-yl)methoxy)-2-fluoro-5-methylbenzamide trifluoroacetic acid salt] | 11.4 nM | – |
| O=C(NS(=O)(=O)C1CC1)c1cc(C2CC2)c(OCC2CCN(C(c3ccc(F)cc3)c3ccc(F)cc3)CC2)cc1F [Example 363, 4-((1-(bis(4-fluorophenyl)methyl)piperidin-4-yl)methoxy)-5-cyclopropyl-N-(cyclopropylsulfonyl)-2-fluorobenzamide, trifluoroacetic acid salt] | 5.8 nM | – |
| CS(=O)(=O)NC(=O)c1cc(C2CC2)c(CN2CCC(Oc3ccc(C(F)(F)F)cn3)CC2)cc1F [Example 476, 5-cyclopropyl-2-fluoro-N-(methylsulfonyl)-4-((4-((5-trifluoromethyl)pyridin-2-yl)oxypiperidin-1-yl)methyl)benzamide, trifluoroacetic acid salt] | 37.2 nM | – |
| C[C@H](c1ccc(F)cc1Cl)N1C[C@H](Oc2cc(F)c(C(=O)NS(C)(=O)=O)cc2C2CC2)CC(C)(C)C1 [Example 452, 4-(((R)-1-((R)-1-(2-chloro-4-fluorophenyl)ethyl)-5,5-dimethylpiperidin-3-yl)oxy)-5-cyclopropyl-2-fluoro-N-(methylsulfonyl)benzamide, trifluoroacetic acid salt] | 43.2 nM | – |
| O=C(NS(=O)(=O)C(F)F)c1cc(C2CC2)c(OCC2CN(C(c3ccccc3)c3ccccc3)C2)cc1F [Example 62] | 47 nM | – |
| O=C(NS(=O)(=O)C1CC1)c1cc(C2CC2)c(OCC2CCN(C(=O)c3cc(Cl)cc(Cl)c3)CC2)cc1F [Example 254, 5-Cyclopropyl-N-(cyclopropylsulfonyl)-4-((1-(3,5-dichlorobenzoyl)piperidin-4-yl)methoxy)-2-fluorobenzamide] | 26 nM | – |
| C[C@H](c1cccc(F)c1)N1CCC(C)(COc2cc(F)c(C(=O)NS(C)(=O)=O)cc2C2CC2)CC1 (single isomer, unassigned) [Example 250] | 43 nM | – |
| C[C@@H]1CC[C@@H](Oc2cc(F)c(C(=O)NS(C)(=O)=O)cc2C2CC2)CN1Cc1ccc(F)cc1Cl [Example 52] | < 1.6 nM | – |

Further lines, results first:

| IC50 [1] | IC50 | SMILES |
| --- | --- | --- |
| 2 nM | – | CS(=O)(=O)NC(=O)c1cc(C2CC2)c(OCC2CCN(C(c3ccccc3Cl)c3ccccc3Cl)CC2)cc1F [Example 361, 4-((1-(bis(2-chlorophenyl)methyl)piperidin-4-yl)methoxy)-5-cyclopropyl-2-fluoro-N-(methylsulfonyl)benzamide, trifluoroacetic acid salt] |
| 1300 nM | – | CS(=O)(=O)NC(=O)c1cc(C2CC2)c(OCC2CN(Cc3cccc(F)c3)C2)cc1F [Example 73, 5-cyclopropyl-2-fluoro-4-((1-(3-fluorobenzyl)azetidin-3-yl)methoxy)-N-(methylsulfonyl)benzamide] |
| 3.2 nM | – | Cc1cc(F)ccc1CN1CCC[C@@H](Oc2cc(F)c(C(=O)NS(C)(=O)=O)cc2C2CC2)C1 [Example 431, (R)-5-cyclopropyl-2-fluoro-4-((1-(4-fluoro-2-methylbenzyl)piperidin-3-yl)oxy)-N-(methylsulfonyl)benzamide, trifluoroacetic acid salt] |
| 27.6 nM | – | C[C@H](c1cc(Cl)cc(Cl)c1)N1CCC(C#N)(COc2cc(F)c(C(=O)NS(C)(=O)=O)cc2C2CC2)CC1 [Example 597] |
| – | 720 nM | O=C(NS(=O)(=O)C1CC1)c1cc(C2CC2)c(CN2CCC([S+]([O-])c3cc(Cl)cc(Cl)c3)CC2)cc1F (stereo not shown) [Example 535, 5-cyclopropyl-N-(cyclopropylsulfonyl)-4-((4-((3,5-dichlorophenyl)sulfinyl)piperidin-1-yl)methyl)-2-fluorobenzamide, trifluoroacetic acid salt] |
| 23.3 nM | – | O=C(NS(=O)(=O)C1CC1)c1cc(C2CC2)c(CN2CCC[C@@H](Oc3cc(Cl)cc(Cl)c3)C2)cc1F [Example 55, (R)-5-cyclopropyl-N-(cyclopropylsulfonyl)-4-((3-(3,5-dichlorophenoxy)piperidin-1-yl)methyl)-2-fluorobenzamide] |
| 17 nM | – | C[C@@H](c1cc(Cl)cc(Cl)c1)N1CCC(COc2cc(F)c(C(=O)NS(=O)(=O)C3CC3)cc2Cl)CC1 [Example 403, (S)-5-chloro-N-(cyclopropylsulfonyl)-4-((1-(1-(3,5-dichlorophenyl)ethyl)piperidin-4-yl)methoxy)-2-fluorobenzamide, trifluoroacetic acid salt] |
| – | 44 nM | O=C(NS(=O)(=O)C1CC1)c1cc(C2CC2)c(CN2CCC(Oc3ccc(F)cc3)CC2)cc1F [Example 508, 5-cyclopropyl-N-(cyclopropylsulfonyl)-2-fluoro-4-((4-(4-fluorophenoxy)piperidin-1-yl)methyl)benzamide, trifluoroacetic acid salt] |
| 20.3 nM | – | O=C(NS(=O)(=O)C1CC1)c1cc(C2CC2)c(OCC2CCN(S(=O)(=O)c3ccccc3C(F)(F)F)CC2)cc1F [Example 371, 5-cyclopropyl-N-(cyclopropylsulfonyl)-2-fluoro-4-((1-((2-(trifluoromethyl)phenyl)sulfonyl)piperidin-4-yl)methoxy)benzamide] |
| 15.5 nM | – | CS(=O)(=O)NC(=O)c1cc(C2CC2)c(OCC2CCN(Cc3ccc(OC(F)(F)F)cc3)CC2)cc1F [Example 135] |
| – | 2.1 nM | O=C(NS(=O)(=O)C1CC1)c1cc(C2CC2)c(O[C@@H]2CCCN(c3cc(Cl)cc(Cl)c3)C2)cc1F [Example 42, (R)-5-cyclopropyl-N-(cyclopropylsulfonyl)-4-((1-(3,5-dichlorophenyl)piperidin-3-yl)oxy)-2-fluorobenzamide] |

Reference: patent US9546164B2 (GENENTECH, INC., priority 2013, dated 2017)
